Assay results as given in patent US20260226057A1, “TRICYCLIC AZEPINONE DERIVATIVES AS SYSTEM XC INHIBITORS” (UCB BIOPHARMA SRL, priority 2023, published 2026).

Legend:
[1] = target: T1, System Xc^− cystine/glutamate antiporter (Homo sapiens, UniProt Q9UPY5); experiment: [^14C]L-Cystine uptake assay; assay type: cell-based; settings: H4 cells, 15 min preincubation, 1 hour at 37° C., sodium-free HEPES buffer; read-out: [^14C] L-Cystine uptake assay (range of pIC50) (converted)
T1 sequence (Q9UPY5 1-501): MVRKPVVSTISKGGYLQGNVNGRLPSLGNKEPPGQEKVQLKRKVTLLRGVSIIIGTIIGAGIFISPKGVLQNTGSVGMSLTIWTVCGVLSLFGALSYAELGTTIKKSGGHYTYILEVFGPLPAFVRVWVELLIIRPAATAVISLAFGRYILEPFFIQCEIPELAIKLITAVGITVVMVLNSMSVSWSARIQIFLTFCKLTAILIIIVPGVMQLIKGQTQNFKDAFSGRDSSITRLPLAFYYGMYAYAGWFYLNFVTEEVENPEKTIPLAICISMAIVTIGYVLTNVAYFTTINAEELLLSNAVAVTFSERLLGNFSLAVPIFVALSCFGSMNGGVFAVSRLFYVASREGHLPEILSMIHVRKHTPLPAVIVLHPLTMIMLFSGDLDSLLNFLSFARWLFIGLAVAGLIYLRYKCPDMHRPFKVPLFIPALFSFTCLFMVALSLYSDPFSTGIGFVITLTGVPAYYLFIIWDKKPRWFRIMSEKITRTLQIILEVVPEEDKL
T1 sequence (P08195 1-529 partner): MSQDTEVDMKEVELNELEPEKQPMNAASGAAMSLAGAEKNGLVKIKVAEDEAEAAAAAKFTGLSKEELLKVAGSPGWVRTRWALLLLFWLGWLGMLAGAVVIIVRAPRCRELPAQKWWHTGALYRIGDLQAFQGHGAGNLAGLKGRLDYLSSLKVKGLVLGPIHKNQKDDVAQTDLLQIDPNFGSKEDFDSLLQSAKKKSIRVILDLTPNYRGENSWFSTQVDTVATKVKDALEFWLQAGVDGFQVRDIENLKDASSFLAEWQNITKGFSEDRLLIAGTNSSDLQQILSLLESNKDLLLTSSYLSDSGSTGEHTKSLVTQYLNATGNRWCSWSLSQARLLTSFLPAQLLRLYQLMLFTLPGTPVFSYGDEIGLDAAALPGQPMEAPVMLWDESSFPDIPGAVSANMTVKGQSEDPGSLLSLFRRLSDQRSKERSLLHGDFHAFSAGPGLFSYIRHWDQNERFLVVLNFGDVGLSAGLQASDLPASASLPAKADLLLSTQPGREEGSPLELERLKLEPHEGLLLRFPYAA
From the text: (§1) By measuring respectively, the concentration of glutamate released outside the cell and the L-cystine uptaken in the cell, with increasing concentrations of compounds of formula (I) according to the present invention, the efficacy of said compounds to inhibit the System Xc^− function can be evaluated.
(§2) The efficacy of the compounds to inhibit system Xc^− is represented by measuring the IC50 which corresponds to the concentration of compound necessary to inhibit 50% of the signals from the two control groups; DMSO 1% and Erastin 50 μM in the respective assays. pIC50 values correspond to −log of the IC50 in Molar.
In this assay, the medium is devoid of sodium to prevent the transport of glutamate by sodium-dependent excitatory amino acid transporters (EAATs). H4 cells were plated on a 96-well CytoStar-T scintillating microplate (PerkinElmer) at 5×10^4 cells/well in the medium described above. After 1 day, cells were washed one time with the sodium-free HEPES buffer and preincubated with test compounds of Formula (I) (1% final DMSO) for 15 min. Uptake was initiated by adding 0.5 μM L-[1,2, 1′,2′-^14C] Cystine (0.02 mCi/mL, PerkinElmer, Waltham, US) and 4.5 μM L-Cystine (Sigma-Aldrich). After 1 hour at 37° C., plates were counted in a MicroBeta^2 microplate counter (PerkinElmer).

[2] = target: T1, System Xc^− cystine/glutamate antiporter; experiment: Cystine-induced glutamate release assay; assay type: cell-based; design: endogenous in cells; host or cells: H4 cells; settings: H4 cells, 50 μM L-Cystine, 2 hours, sodium-free HEPES buffer; read-out: Cystine-induced glutamate release assay (range of pIC50) (converted)
From the text: as §1, §2
Measurement of cystine-induced glutamate release indicates levels of glutamate (outside of the cell) that are dependent on system Xc^− antiporter function. Upon the addition of L-Cystine to H4 cells, intracellular glutamate is counter-transported and exported in the supernatant.
In this assay, the medium is devoid of sodium to prevent the transport of glutamate by sodium-dependent excitatory amino acid transporters (EAATs). H4 cells were plated on 384-well culture plate at 1×10^4 cells/well in Dulbecco's Modified Eagle Medium (DMEM) with L-glutamine, penicillin/streptomycin and 10% fetal bovine serum (all from ThermoFisher Scientific) and incubated in a humidified CO2 incubator at 37° C. After 2 days, cells were washed 4 times with prewarmed sodium-free HEPES buffer (contents in mM: HEPES 10, KCl 5.4, CaCl2 2.5, MgCl2 1, KH2PO4 0.4, D-Glucose 5, Choline chloride 140), pH 7.4. Glutamate release was induced by addition of 50 μM of L-Cystine (Sigma-Aldrich), together with a test compound of Formula (I) at 1% final DMSO concentration. After 2 hours of incubation in the culture incubator, supernatants were transferred to a low-binding polypropylene 384-well plate to determine L-glutamate concentration using Amplex™ Red Glutamic Acid Assay Kit (ThermoFisher Scientific). Briefly, 10 μL of Amplex™ Red working solution was added to 10 μL of the supernatant, then the mixture was incubated for 30 min at 37° C. Fluorescence intensity was measured by EnVision microplate reader (PerkinElmer).

Row | IC50 [1] [nM] | IC50 [2] [nM] | SMILES
1 | < 15.8 | 15.8 to 39.8 | CC(=O)c1ccc(NC(=O)CN2C(=O)C(C)c3ncccc3-c3c2cc(C)nc3F)cc1O (single isomer, unassigned) [#16]
2 | 15.8 to 39.8 | 15.8 to 39.8 | COc1cc2c(c(F)n1)-c1cccnc1C(C)C(=O)N2CC(=O)Nc1ccc(C(C)=O)cc1 (single isomer, unassigned) [#11]
3 | < 15.8 | < 15.8 | CC(=O)c1ccc(NC(=O)CN2C(=O)C(C)c3ncccc3-c3c2cc(C)nc3Cl)cc1 (single isomer, unassigned) [#6]
4 | < 15.8 | < 15.8 | CC(=O)c1ccc(NC(=O)CN2C(=O)C(C)c3ncccc3-c3c2cc(N2CC(F)C2)nc3F)cc1 (stereo not shown) [#8]
5 | 15.8 to 39.8 | 39.8 to 100 | CC(=O)c1ccc(NC(=O)CN2C(=O)Cc3ncccc3-c3c2cc(N2CC(F)(F)C2)nc3F)cc1 [#22]
6 | 39.8 to 100 | 39.8 to 100 | Cc1cc2c(c(F)n1)-c1cc(F)cnc1C(C)C(=O)N2CC(=O)Nc1ccc2c(c1)OCC2=O (single isomer, unassigned) [#18]
7 | 39.8 to 100 | 39.8 to 100 | CCC(=O)c1ccc(NC(=O)CN2C(=O)[C@H](C)c3ncccc3-c3c2cc(C)nc3F)cc1 [#15]
8 | 15.8 to 39.8 | 100 to 501 | COc1cc2c(cn1)-c1cc(F)cnc1C(C)C(=O)N2CC(=O)Nc1ccc(C(C)=O)cc1 (single isomer, unassigned) [#32]
9 | 15.8 to 39.8 | 100 to 501 | CC(=O)c1ccc(NC(=O)CN2C(=O)C(C)c3ncccc3-c3c2cc(N2CC(C)(F)C2)nc3F)cc1 (stereo not shown) [#26]
10 | 39.8 to 100 | 100 to 501 | CC(=O)c1ccc(NC(=O)CN2C(=O)Cc3ccccc3-c3c2cc(C)nc3F)cc1 [#10]
11 | 100 to 501 | 39.8 to 100 | CC(=O)c1ccc(NC(=O)CN2C(=O)C(C)c3nscc3-c3c2cc(C)nc3F)cc1 (stereo not shown) [#28]
12 | 15.8 to 39.8 | 39.8 to 100 | CC(=O)c1ccc(NC(=O)CN2C(=O)C(C)c3ncccc3-c3c2cc(N2CC(C)(O)C2)nc3F)cc1 (stereo not shown) [#25]
13 | < 15.8 | 39.8 to 100 | CC(=O)c1ccc(NC(=O)CN2C(=O)C(C)c3ncccc3-c3c2cc(N2CC(F)(F)C2)nc3F)cc1 (stereo not shown) [#7]
14 | < 15.8 | < 15.8 | CC(=O)c1ccc(NC(=O)CN2C(=O)[C@H](C)c3ncc(F)cc3-c3c2cc(C)nc3Cl)cc1 [#5]
15 | 39.8 to 100 | 100 to 501 | CC(=O)c1ccc(NC(=O)CN2C(=O)Cc3ncccc3-c3c2cc(N2CC4(C2)CC4(F)F)nc3Cl)cc1 [#9]
16 | 15.8 to 39.8 | 15.8 to 39.8 | CC(=O)c1ccc(NC(=O)CN2C(=O)C(C)c3ncccc3-c3c2cc(C2CCC2)nc3F)cc1 (stereo not shown) [#31]
17 | 39.8 to 100 | 39.8 to 100 | CC(=O)c1ccc(NC(=O)CN2C(=O)C(C)c3ncccc3-c3c2cc(F)nc3F)cc1 (single isomer, unassigned) [#23]
18 | 100 to 501 | 100 to 501 | Cc1cc2c(c(F)n1)-c1cccnc1[C@@H](C)C(=O)N2CC(=O)Nc1ccc(C(=O)C2CC2)cc1 [#2]

Row | IC50 [1] [nM] | IC50 [2] [nM] | SMILES
19 | 15.8 to 39.8 | 39.8 to 100 | CC(=O)c1ccc(NC(=O)CN2C(=O)C(C)c3ncccc3-c3c2cc(C)nc3F)cc1F (stereo not shown) [#24]
20 | 15.8 to 39.8 | 39.8 to 100 | COc1cnc2c(c1)-c1c(cc(C)nc1F)N(CC(=O)Nc1ccc(C(C)=O)cc1)C(=O)C2C (single isomer, unassigned) [#20]
21 | < 15.8 | 15.8 to 39.8 | CC(=O)c1ccc(NC(=O)CN2C(=O)C(C)c3ncccc3-c3c(F)cc(N4CC(F)C4)cc32)cc1 (stereo not shown) [#35]
22 | < 15.8 | 15.8 to 39.8 | CC(=O)c1ccc(NC(=O)CN2C(=O)C(C)c3ncc(F)cc3-c3cc(C#N)c(C)cc32)cc1 (single isomer, unassigned) [#19]
23 | 15.8 to 39.8 | 39.8 to 100 | COc1nccc2c1-c1cccnc1C(C)C(=O)N2CC(=O)Nc1ccc(C(C)=O)cc1 (single isomer, unassigned) [#14]
24 | < 15.8 | 15.8 to 39.8 | CC(=O)c1ccc(NC(=O)CN2C(=O)Cc3ncccc3-c3c2cc(N2CC(F)C2)nc3F)cc1 [#21]
25 | 39.8 to 100 | 39.8 to 100 | COc1cnc2c(c1)-c1cnc(C)cc1N(CC(=O)Nc1ccc(C(C)=O)cc1)C(=O)C2C (single isomer, unassigned) [#12]
26 | 15.8 to 39.8 | 39.8 to 100 | CC(=O)c1ccc(NC(=O)CN2C(=O)Cc3ncccc3-c3c2cc(N2CC(C)(O)C2)nc3F)cc1 [#27]
27 | 39.8 to 100 | 39.8 to 100 | CC(=O)c1ccc(NC(=O)CN2C(=O)C(C)c3ncccc3-c3c2cc(C2(O)CCC2)nc3F)cc1 (stereo not shown) [#29]
28 | 100 to 501 | 100 to 501 | CC(=O)c1ccc(NC(=O)CN2C(=O)C(C)c3ncc(F)cc3-c3c2cc(CO)nc3F)cc1 (stereo not shown) [#30]
29 | 15.8 to 39.8 | 15.8 to 39.8 | CC(=O)c1ccc(NC(=O)CN2C(=O)[C@H](C)c3ncc(F)cc3-c3c2cc(C)nc3F)cc1 [#3]
30 | < 15.8 | < 15.8 | CC(=O)c1ccc(NC(=O)CN2C(=O)C(C)c3ncc(F)cc3-c3c2cc(C)nc3F)cc1O (single isomer, unassigned) [#33]
31 | < 15.8 | 39.8 to 100 | COc1cc2c(c(F)n1)-c1cc(F)cnc1C(C)C(=O)N2CC(=O)Nc1ccc(C(C)=O)cc1 (single isomer, unassigned) [#17]
32 | 39.8 to 100 | 39.8 to 100 | CC(=O)c1ccc(NC(=O)CN2C(=O)C(C)c3ncc(F)cc3-c3cnc(C)cc32)cc1 (stereo not shown) [#4]
33 | < 15.8 | 15.8 to 39.8 | COc1nc(C)cc2c1-c1cccnc1C(C)C(=O)N2CC(=O)Nc1ccc(C(C)=O)cc1 (single isomer, unassigned) [#13]
34 | 39.8 to 100 | 39.8 to 100 | CC(=O)c1ccc(NC(=O)CN2C(=O)C(C)c3cnc(F)cc3-c3c2cc(C)nc3F)cc1 (stereo not shown) [#34]
35 | 15.8 to 39.8 | 15.8 to 39.8 | CC(=O)c1ccc(NC(=O)CN2C(=O)[C@H](C)c3ncccc3-c3c2cc(C)nc3F)cc1 [#1]
